# “And” between values parts separate entries of the source, which are not always exact repeats. Equal values may be shown once. Inconclusive results and toxic doses are left out.
# System: P388 leukemia ip, CD2F1 mice, survival T/C
# Assay: NCI In Vivo Anticancer Drug Screen. Data for tumor model P388 Leukemia (intraperitoneal) in CD2F1 (CDF1) mice
# Settings: endpoint: median survival time, higher = longer survival
# How it was run: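 Mice carrying the transplanted tumor received test compound or vehicle. Survival was recorded in each group, and the value is the treated-group measurement divided by that of the vehicle-treated control group.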
# [1] = dose: 50.0 mg/kg/injection, schedule: Q01DX005 (ip), vehicle: Klucel (hydroxypropylcellulose) (HPC)
# [2] = dose: 100.0 mg/kg/injection, schedule: Q01DX005 (ip), vehicle: Klucel (hydroxypropylcellulose) (HPC)
# [3] = dose: 200.0 mg/kg/injection, schedule: Q01DX005 (ip), vehicle: Klucel (hydroxypropylcellulose) (HPC)
# [4] = dose: 30.0 mg/kg/injection, schedule: Q01DX005 (ip), vehicle: Klucel (hydroxypropylcellulose) (HPC)
# [5] = dose: 60.0 mg/kg/injection, schedule: Q01DX005 (ip), vehicle: Klucel (hydroxypropylcellulose) (HPC)
smiles,measurement,setting,value
CSC1=C(C#N)C(=O)N=S(C)(C)=N1,T/C,"dose: 50.0 mg/kg/injection, schedule: Q01DX005 (ip), vehicle: saline with Tween-80",108 % of control
same,T/C,"dose: 100.0 mg/kg/injection, schedule: Q01DX005 (ip), vehicle: saline with Tween-80",110 % of control
same,T/C,"dose: 200.0 mg/kg/injection, schedule: Q01DX005 (ip), vehicle: saline with Tween-80",100 % of control
O=C(Nc1ccc2[nH]c3ccccc3c2c1)c1ccccc1Cl,T/C,[1],93 % of control
same,T/C,[2],95 % of control
same,T/C,[3],90 % of control
O=C(CCl)NCC1OC(n2cnc3c(=O)[nH]cnc32)C(O)C1O (stereo not given),T/C,"dose: 50.0 mg/kg/injection, schedule: Q01DX005 (ip), vehicle: saline",98 % of control
same,T/C,"dose: 100.0 mg/kg/injection, schedule: Q01DX005 (ip), vehicle: saline",96 % of control
same,T/C,"dose: 200.0 mg/kg/injection, schedule: Q01DX005 (ip), vehicle: saline",100 % of control
O=C1CC2CCC1CC2c1cnc[nH]1 (stereo not given),T/C,"dose: 25.0 mg/kg/injection, schedule: Q04DX002 (ip), vehicle: saline with Tween-80",93 % of control
same,T/C,"dose: 50.0 mg/kg/injection, schedule: Q04DX002 (ip), vehicle: saline with Tween-80",100 % of control
same,T/C,"dose: 100.0 mg/kg/injection, schedule: Q04DX002 (ip), vehicle: saline with Tween-80",102 % of control
COc1ccc2nc3cc(Cl)ccc3c(NCCCCCCCCNc3c4ccc(Cl)cc4nc4ccc(OC)cc34)c2c1,T/C,"dose: 0.62 mg/kg/injection, schedule: Q01DX009 (ip), vehicle: other",101 % of control
same,T/C,"dose: 1.25 mg/kg/injection, schedule: Q01DX009 (ip), vehicle: other",101 % of control
same,T/C,"dose: 2.5 mg/kg/injection, schedule: Q01DX009 (ip), vehicle: other",104 % of control
same,T/C,"dose: 5.0 mg/kg/injection, schedule: Q01DX009 (ip), vehicle: other",100 % of control
same,T/C,"dose: 10.0 mg/kg/injection, schedule: Q01DX009 (ip), vehicle: other",97 % of control
same,T/C,"dose: 20.0 mg/kg/injection, schedule: Q01DX009 (ip), vehicle: other",109 % of control
COc1ccccc1Nc1n[nH]c(=S)s1,T/C,"dose: 50.0 mg/kg/injection, schedule: Q01DX009 (ip), vehicle: Klucel (hydroxypropylcellulose) (HPC)",121 % of control
same,T/C,"dose: 100.0 mg/kg/injection, schedule: Q01DX009 (ip), vehicle: Klucel (hydroxypropylcellulose) (HPC)",105 % of control
same,T/C,"dose: 200.0 mg/kg/injection, schedule: Q01DX009 (ip), vehicle: Klucel (hydroxypropylcellulose) (HPC)",95 % of control
CCCN(C)CC(=O)NC(Cc1ccccc1)c1ccccc1 (stereo not given),T/C,[4],94 % of control
same,T/C,[5],93 % of control
same,T/C,"dose: 120.0 mg/kg/injection, schedule: Q01DX005 (ip), vehicle: Klucel (hydroxypropylcellulose) (HPC)",104 % of control
Cc1ccc(Cl)cc1NC(=O)OCCN(C)C(=O)Nc1cc(Cl)ccc1C,T/C,"dose: 15.0 mg/kg/injection, schedule: Q01DX005 (ip), vehicle: Klucel (hydroxypropylcellulose) (HPC)",98 % of control
same,T/C,[4],90 % of control
same,T/C,[5],96 % of control
COc1ccc(C(=O)N2C3C4C=CC(C4)C3N2C(=O)c2ccc(OC)cc2)cc1 (stereo not given),T/C,"dose: 25.0 mg/kg/injection, schedule: Q01DX005 (ip), vehicle: Klucel (hydroxypropylcellulose) (HPC)",99 % of control
same,T/C,[1],92 % of control and 93 % of control
same,T/C,[2],95 % of control
same,T/C,[3],88 % of control
O=c1ccncn1C1OC(CO)C(O)C1O (stereo not given),T/C,"dose: 60.0 mg/kg/injection, schedule: Q01DX005 (ip), vehicle: saline",103 % of control
same,T/C,"dose: 120.0 mg/kg/injection, schedule: Q01DX005 (ip), vehicle: saline",102 % of control
same,T/C,"dose: 240.0 mg/kg/injection, schedule: Q01DX005 (ip), vehicle: saline",110 % of control
CCC1(O)CC2CN(CCc3c([nH]c4ccccc34)C(C(=O)OC)(c3cc4c(cc3OC)N(C)C3C(O)(C(=O)OC)CC5(CC)C=CCN6CCC43C65)C2)C1 (stereo not given),T/C,"dose: 1.0 mg/kg/injection, schedule: Q01DX001 (ip), vehicle: saline",120 % of control and 122 % of control
same,T/C,"dose: 4.0 mg/kg/injection, schedule: Q01DX001 (ip), vehicle: saline",150 % of control
same,T/C,"dose: 8.0 mg/kg/injection, schedule: Q01DX001 (ip), vehicle: saline",155 % of control
same,T/C,"dose: 16.0 mg/kg/injection, schedule: Q01DX001 (ip), vehicle: saline",165 % of control and 175 % of control
same,T/C,"dose: 32.0 mg/kg/injection, schedule: Q01DX001 (ip), vehicle: saline",195 % of control and 205 % of control
O=C1OC2CS(=O)CC2O1 (stereo not given),T/C,"dose: 50.0 mg/kg/injection, schedule: Q01DX009 (ip), vehicle: saline with Tween-80",104 % of control
same,T/C,"dose: 50.0 mg/kg/injection, schedule: Q01DX009 (ip), vehicle: saline",102 % of control
same,T/C,"dose: 100.0 mg/kg/injection, schedule: Q01DX009 (ip), vehicle: saline with Tween-80",101 % of control
same,T/C,"dose: 100.0 mg/kg/injection, schedule: Q01DX009 (ip), vehicle: saline",101 % of control
same,T/C,"dose: 200.0 mg/kg/injection, schedule: Q01DX009 (ip), vehicle: saline with Tween-80",95 % of control
same,T/C,"dose: 200.0 mg/kg/injection, schedule: Q01DX009 (ip), vehicle: saline",99 % of control
